Data on two substances can be found in patent publication US11077184B2 (priority 2011, dated 2021).

Assay [1] concerns Purified B cells from C57BL6 mice. It is filed as cell-based.
Assay [2] concerns murine DCs. To be noted: cited from earlier work.

“Also recorded” adds a separate entry of the source.

As to Poly I:C, in assay [1], the “proliferation of B cells ([3H]-thymidine incorporation, CPM)” value is on record as “does not”.
For “tripalmitoyl-S-glyceryl-cysteine [Pam3Cys]”, the “pro-inflammatory cytokines IL-12p40, IL-6 and TNFα produced” value in assay [2] is reported as “high levels”. Also, the “proliferation of B cells ([3H]-thymidine incorporation, CPM)” value in assay [1] is on record as “can induce potent proliferation of B cells; also recorded: capable of inducing potent proliferation of B cells”.
